Several values for one entry are separate records, joined by “and”; a condition that tells them apart may be missing. Equal values may be shown once. Square brackets hold non-standard residues; d marks the D form. NMeV = CN[C@H](C(=O)O)C(C)C
Tests used:
mice = tested on: mice; design: method as in PMID 12183425; details: ref [65]; cited from earlier work
gynecologic malignancies = tested on: gynecologic malignancies; design: method as in PMID 18760451, PMID 22446624; details: ref [66],[67], cited from earlier work
GBM models = details: cited from earlier work
Description: (§1) Since the identification of the integrin-binding domain (RGD) in fibronectin/vitronectin, RGD-containing peptides and derived compounds have been developed. […] In contrast, other trials have not shown cilengitide to be better in terms of progression-free survival or overall survival than the standard treatment ...

[1] = tested on: patients with advanced glioblastoma; details: cited from earlier work
Description: as §1

[2] = tested on: aggressive and recurrent meningiomas; details: combination with an mTOR inhibitor; ref [72]; cited from earlier work
Description: As far as translation into clinics is concerned, it is worth mentioning that small peptides, such as uPAcyclin, are generally non-immunogenic and cost-effective to produce, and some of them have already entered clinical trials. […] Nevertheless, small peptides need to reach molecular targets to accomplish their effects. Thus, they often depend on physiological transports and ...

[3] = tested on: U87-MG cells (αV integrin); assay: FITC-uPAcyclin receptor binding/competition, U87-MG; design: species or system human; details: vitronectin 200 µM, anti-αV 5 µg/mL, anti-α2 1 µg/mL
Method: The U87-MG, U251-MG, and U138-MG cell lines were harvested and acid-treated, as described. Then, 2 × 10^6 cells/sample were exposed for 30 min at 4 °C to uPAcyclin or S-uPAcyclin at the indicated concentrations, or with the following antibodies: VNR147 monoclonal anti-αV integrin (Chemicon Int. Inc., Temecula, CA, USA), polyclonal anti-αV (Millipore, Burlington, MA, USA), monoclonal anti-α2 (Chemicon Int. Inc., Temecula, CA, USA), polyclonal anti-actin (Sigma-Aldrich, St. Louis, MO, USA), monoclonal anti-GAPDH (Abcam, Cambridge, UK), and purified vitronectin (VN, Corning, Glendale, AZ, USA). The cells were subsequently incubated with 50 nM FITC-uPAcyclin for 2 h at 4 °C, as described. At the end of incubation, the cells were washed and the cell surface-associated fluorescence was determined using a fluorimeter (VICTOR^TM X3-PerkinElmer, Waltham, MA, USA). All binding assays were performed three times, with duplicate samples, and analyzed as described in Section 2.11.
Figure 2 αV expression of U87-MG, U251-MG, and U138-MG GBM cells and specific binding of FITC-uPAcyclin. (A) U87-MG, U251-MG, U138-MG, HEK-293, and HEK-293/αV total cell lysates were subjected to Western blotting and probed using polyclonal anti-αV or polyclonal anti-actin as loading control. (B) A total of 2 × 10^6 U87-MG, U251-MG, U138-MG, HEK-293/αV, or HEK-293 cells were pre-incubated for 30 min at 4 °C with 500 nM uPAcyclin and further exposed to 50 nM FITC-uPAcyclin for 2 h at 4 °C. At the end of the incubation, the unbound material was washed and cell-associated FITC-uPAcyclin was quantitated by a fluorimeter. The net value of cell-surface-associated fluorescence, corresponding to the specific binding, is shown. (C) A total of 2 × 10^6 U87-MG, U251-MG, and U138-MG cells were pre-incubated for 30 min at 4 °C with increasing concentrations of unlabeled uPAcyclin and then assayed for binding of FITC-uPAcyclin, for 2 h at 4 °C. Cell-surface-associated fluorescence, as percentage of the samples […], is shown. (D) U87-MG cells were pre-incubated with uPAcyclin (1 pM, 100 nM), scrambled uPAcyclin (S-uPAcyclin, 1 pM and 100 nM)), vitronectin (200 µM), anti-αv polyclonal (anti-αV Pclonal, 5 µg/mL) or monoclonal (anti-αV MoAb, 5 µg/mL) or anti-α2 monoclonal (anti-α2 MoAb, 1 µg/mL), polyclonal anti-actin, and monoclonal anti GAPDH. Then, cells were treated as in B (* p-value < 0.05; *** p-value < 0.001).

**Q.** Which results are given for Ac-K^136PSSPPEE^143-NH2 [Å6]?
**A.** anti-angiogenetic and anti-metastatic activity (mice): clearcut anti-angiogenetic and anti-metastatic activities in mice; tolerability (gynecologic malignancies; phase I, gynecologic malignancies): well tolerated; disease progression (gynecologic malignancies; phase II): delayed disease progression in the treated individuals

**Q.** Which results are given for “cilengitide: known αVβ3/αVβ5 integrin inhibitor (cyclo(RGD[dF][NMeV]); chains of the INN, looked up)”?
**A.** effect in GBM models (GBM models; ref [51]): cytotoxic, anti-angiogenetic, and anti-invasive effect in GBM models; tumor angiogenesis at lower doses (GBM models; suggested reason for failure in GBM patients, ref [54]): detrimental stimulation of tumor angiogenesis at lower doses; overall survival effect ([1]; patients with advanced glioblastoma, ref [52]): seemed to suggest a positive effect on overall survival; progression-free or overall survival vs standard treatments ([1]; ref [53]): have not shown cilengitide to be better in terms of progression-free survival or overall survival than the standard treatments

**Q.** With octreotide as the substance, how does the efficacy and tolerability [2] read?
**A.** Its efficacy and tolerability is “effective and well tolerated”.

**Q.** With “vitronectin: purified vitronectin (Corning)” as the substance, how does the “competition with FITC-uPAcyclin binding, in words” value ([3]; U87-MG, S-uPAcyclin 1 pM and 100 nM) read?
**A.** The value was “only at a high concentration”.

**Q.** And the “FITC-uPAcyclin binding, single values” ([3]; T-test sheet, single replicates of all EXPTs)?
**A.** The value was 42 and 50 and 45 and 47.

Reference: publication PMC10571957, “αV-Integrin-Dependent Inhibition of Glioblastoma Cell Migration, Invasion and Vasculogenic Mimicry by the uPAcyclin Decapeptide” (Cancers, 2023)
